The text below walks through data of US20040067222A1, “Regulation of glucocorticoid concentration” (priority 2001, published 2004).

In data set [1] the target is T1, 11β-HSD1 (Mus musculus, UniProt P50172).
T1 construct: endogenous in cells; host or cells: mouse macrophages (probably thioglycollate-elicited peritoneal macrophages from C57Bl/6 mice)
The data set can be described thus: Conversion of 3H-11-dehydrocorticosterone to corticosterone in macrophage cultures (FIG. 2b, 2c). Format: cell-based. The source says:
(§1) Samples were taken at different times and ^3H-cort and ^3H-11-DHC were separated from media samples by thin layer chromatography and analysed by phosphorimaging.

The test system of data set [2] is murine peripheral macrophages. The data set can be described thus: Phagocytosis by murine peripheral macrophages (FIG. 3). Format: cell-based. To be noted: for phagocytosis performance of macrophages: over 24 hours. The protocol: (§2) Fresh PMN were isolated from peripheral blood and aged to apoptosis in Teflon wells over 24 hrs in Iscoves/10% autologous serum. Mφ were treated with glucocorticoids as described in the figures. Mφ and aPMN were washed with 1×PBS and interacted in serum free Iscoves for 30 mins at 37° C. The cell layer was gently washed to remove […] cells, fixed in 1×Formalin and stained with PMN selective myeloperoxidase.

The subject of data set [3] is murine BMD Mφ. Kind of data set: Phagocytosis of apoptotic PMN by BMD Mφ from control and 11β-HSD-/- mice (FIG. 4). Type of data set: cell-based. To be noted: for enhanced phagocytic effect in 11βHSD-1-/- Mφ: 11βHSD-1-/- macrophages versus control; for phagocytosis of apoptotic PMN by BMD Mφ: 48 hrs treatment, n=4/group. The protocol:
Bone Marrow Derived Macrophages (BMD Mφ)—bone marrow was extracted from femurs (C57BI/6 mice) and cultured @4×10^5 cells/ml in DMEM/10% FCS/10% L929 cell line supernatant for 8 days.
as §2
Transgenic 11β-HSD^−/− mice have been described previously (Kotelevstev et al., PNAS (USA) 94:14924-14929). Macrophages are isolated from control and 11β-HSD^−/− mice and assayed in a PMN phagocytosis assay as described above.

Data set [4] has as its system 11β-HSD-1. Kind of data set: 11β-reductase activity in human monocytes differentiating into macrophages, incubated with IL-4 (FIG. 8). Type of data set: cell-based. Particulars: range of doses of IL-4, human monocytes at initiation of differentiation.
Text: Human Monocytes—monocytes isolated from peripheral blood by dextran sedimentation and percoll gradient methods. Monocytes were differentiated to Mφ @4×10^6 cells/ml over 4 days in Iscoves/10% autologous serum.
as §1
The manner in which differentiating macrophages acquire 11β-HSD-1 activity can be influenced by cytokines. In the experiment shown in FIG. 8, human monocytes at the initiation of differentiation into macrophages were incubated with a range of doses of IL-4. 11β-reductase activity was measured by incubation with tritiated 11-DHC.

Data set [5] deals with blood glucose levels. Particulars: oral administration, two mouse models of diabetes; cited from earlier work.

T1 sequence (P50172 whole entry): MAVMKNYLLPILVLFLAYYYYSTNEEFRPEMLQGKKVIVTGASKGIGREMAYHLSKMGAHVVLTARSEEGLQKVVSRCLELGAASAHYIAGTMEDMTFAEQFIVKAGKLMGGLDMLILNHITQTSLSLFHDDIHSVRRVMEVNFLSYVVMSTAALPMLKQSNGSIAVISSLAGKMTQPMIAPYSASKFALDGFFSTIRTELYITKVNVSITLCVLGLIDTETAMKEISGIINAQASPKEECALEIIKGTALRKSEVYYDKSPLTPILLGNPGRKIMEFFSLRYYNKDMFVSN

Regarding `C[C@]12CC(=O)[C@H]3[C@@H](CCC4=CC(=O)CC[C@@]43C)[C@@H]1CC[C@@H]2C(=O)CO` [11-dehydrocorticosterone], the “conversion of inactive 11-dehydrocorticosterone (A) to active corticosterone (B)” value in data set [1] (mouse macrophages, over a 24 hour period) is on record as “clearly shows conversion of (A) to (B)”. Besides, the “phagocytosis performance of macrophages” value in data set [2] was “two-fold”. In addition, in data set [3], the “enhanced phagocytic effect in 11βHSD-1-/- Mφ” value was “abrogated” and the “phagocytosis of apoptotic PMN by BMD Mφ” value was “enhancement of phagocytosis”.

“IL-4: cytokine capable of inducing 11β-HSD 1 expression”: the “conversion of inert 11-DHC to active corticosterone (11β-reductase activity)” value in data set [4] is recorded as “dose-relatedly increased”.

For the molecule `C=CC(C)(C)c1[nH]c2ccccc2c1C1=C(O)C(=O)C(c2c[nH]c3c(CC=C(C)C)cccc23)=C(O)C1=O` [L-783,281], the blood glucose levels entry in data set [5] is reported as “significant lowering”.

As for `C[C@]12C[C@H](O)[C@H]3[C@@H](CCC4=CC(=O)CC[C@@]43C)[C@@H]1CC[C@@H]2C(=O)CO` [corticosterone], the “phagocytosis performance of macrophages” value in data set [2] was “two-fold”. Moreover, in data set [3], the “enhanced phagocytic effect in 11βHSD-1-/- Mφ” value is recorded as “no effect” and the “phagocytosis of apoptotic PMN by BMD Mφ” value was “enhancement of phagocytosis”.

Take `CC1(C)[C@@H](OC(=O)CCC(=O)O)CC[C@]2(C)[C@H]3C(=O)C=C4[C@@H]5C[C@@](C)(C(=O)O)CC[C@]5(C)CC[C@@]4(C)[C@]3(C)CC[C@@H]12` [carbenoxolone]: the “effect on conversion of (A) to (B) by 11β-HSD1” value in data set [1] (high concentrations of carbenoxolone) was “can be blocked”. Moreover, the “effect of inactive 11-dehydrocorticosterone on phagocytosis in the presence of the inhibitor” value in data set [2] (macrophages incubated with 11-dehydrocorticosterone plus carbenoxolone) is “completely abolishes”.
